pEC50: −log10 of the molar value.
Test system: HBV
Test: HBV inhibition assay in HepAD38 cells (extracellular HBV DNA by direct qPCR)
Format: cell-based
Details: Hepatitis B virus, 8-point dose-response curve, 96 hours, read-out: HBV inh EC50
Text: HepAD38 cell line (Ladner et al., Antimicrob Agents Chemother, 1997, 41, 1715-20) was used for HBV inhibition assays. HepAD38 is a subclone, derived from Hepatoblastoma cell line HepG2 (ATCC® Number: HB-8065™), that expresses HBV genome under the control of a tetracycline-responsive promoter in a TET-OFF system: addition of tetracycline suppresses HBV replication, while its removal switches on the process allowing HBV viral particles release in the cell supernatant. HepAD38 cell line is maintained in DMEM/F12, supplemented with 10% of fetal bovine serum, 1% of glutamine, 1% of penicillin/streptomycin, 0.4 mg/ml G418 and 0,3 ug/ml tetracycline. For the HBV inhibition assay, doxycycline-free medium is used in order to allow virion production.
HBV inhibition activity in vitro was performed in 96 multiwell plates. During the initial (primary) screening compounds were first tested in triplicates at concentrations of 0.1µM, 0.5µM amd 1µM. For selected compounds, an 8-point dose-response curve can be obtained using 1:2 serial dilutions (starting from 2.5 µM, 1.25µM or 0.4 µM, depending on the degree of inhibition observed during the primary screening). From the dose-response curves, half maximal effective concentration (EC50) can be calculated (see also below).
In more detail, compounds - typically dissolved in DMSO stock solutions - are diluted to 2x the final desired concentration in 100 µl of the above medium (without doxycycline) and plated in three replicates in the 96-well plates.
Simultaneously, HepAD38 cells - extensively pre-washed in tetracycline-free medium in order to induce HBV production - are suspended at 2*10^4 cells in 100 µl of tetracycline-free medium and added to each well of the plate, to yield a final assay volume of 200 µl DMSO - used for stock solutions and compounds dilutions - which is always present in the assays at a final concentration of 0.5%.
Plates are then incubated 96 hours at 37°C and then subjected to cell viability assay in order to define compounds cytotoxicity and to extracellular HBV quantification in order to evaluate antiviral activity of compounds. Cytotoxicity is assessed by a commercial fluorescence assay that measures the metabolic activity of cells, directly related to cell viability (Cell Titer Blue, Promega). Anti-HBV activity was evaluated by quantification of extracellular HBV DNA with direct qPCR. In particular, supernatant was collected and centrifuged for cell debris clarification, viral DNA was extracted from virions by addition of lysis buffer (1 mM 1,4-dithiothreitol, 0.2% sodium dodecyl sulphate) and incubated at 95°C for 10 min. Samples were then diluted 1:40 and real time PCR amplification was performed with SYBR green assay (Power SYBR™ Green PCR Master Mix-Thermo Fisher Scientific) and specific HBV primer (HBV-DF:5'-[…]-3' (SEQ ID No. 1), HBV-DR:5'-[…]-3' (SEQ ID No. 2)).
All HBV inhibition or antiviral activity data are typically reported in percent (%) relative to a non-treated reference sample. Excel and Graphpad Prism programs are typically used for data elaboration and EC50 calculation.

SMILES	pEC50
Cc1cc(C(=O)Nc2cc(F)c(F)c(F)c2)cc2c1NCNS2(=O)=O [Example E88, 5-methyl-N-(3,4,5-trifluorophenyl)-3,4-dihydro-2H-benzo[e][1,2,4]thiadiazine-7-carboxamide 1,1-dioxide]	< 6.00

Same assay, conditions: Hepatitis B virus, compound at 0.1 µM, 96 hours, relative to non-treated reference, read-out: Anti HBV Activity (conc µM)

SMILES	inhibition at 0.1 µM [%]
O=C(Nc1ccc(F)c(Cl)c1)c1ccc2c(c1)S(=O)(=O)N([C@H]1CC[C@H](O)CC1)C(=O)N2 [Example E123, N-(3-chloro-4-fluorophenyl)-2-((1r,4r)-4-hydroxycyclohexyl)-3-oxo-3,4-dihydro-2H-benzo[e][1,2,4]thiadiazine-7-carboxamide 1,1-dioxide]	> 50

Same assay, conditions: Hepatitis B virus, compound at 0.5 µM, 96 hours, relative to non-treated reference, read-out: Anti HBV Activity (conc µM)

SMILES	inhibition at 0.5 µM [%]
O=C(Nc1cc(F)c(F)c(F)c1)c1ccc2c(c1)S(=O)(=O)N([C@H]1C[C@@H](O)C1)CN2 [Example E126, Cis-2-(3-hydroxycyclobutyl)-N-(3,4,5-trifluorophenyl)-3,4-dihydro-2H-benzo[e][1,2,4]thiadiazine-7-carboxamide 1,1-dioxide]	< 50
O=C(Nc1cc(F)c(F)c(F)c1)c1ccc2c(c1)S(=O)(=O)NC(c1ncccn1)N2 (stereo not drawn) [Example E54, 3-(pyrimidin-2-yl)-N-(3,4,5-trifluorophenyl)-3,4-dihydro-2H-benzo[e][1,2,4]thiadiazine-7-carboxamide 1,1-dioxide]	> 50
O=C(Nc1cc(F)c(F)c(F)c1)c1ccc2c(c1)S(=O)(=O)NC1(CCNCC1)N2 [Example E14, N-(3,4,5-trifluorophenyl)-2H,4H-spiro[benzo[e][1,2,4]thiadiazine-3,4'-piperidine]-7-carboxamide 1,1-dioxide]	> 50
O=C(Nc1cc(F)c(F)c(F)c1)c1ccc2c(c1)S(=O)(=O)N([C@H]1CC[C@@H](O)CC1)C(=O)N2 [Example E87, cis-2-(4-hydroxycyclohexyl)-3-oxo-N-(3,4,5-trifluorophenyl)-3,4-dihydro-2H-benzo[e][1,2,4]thiadiazine-7-carboxamide 1,1-dioxide]	> 50
CC(C)(C)OC(=O)N1CC[C@H](N2C(=O)Nc3ccc(C(=O)Nc4cc(F)c(F)c(F)c4)cc3S2(=O)=O)C1 [Example E83, tert-butyl (S)-3-(1,1-dioxido-3-oxo-7-((3,4,5-trifluorophenyl)carbamoyl)-3,4-dihydro-2H-benzo[e][1,2,4]thiadiazin-2-yl)pyrrolidine-1-carboxylate]	< 50
O=C(Nc1cc(F)c(F)c(F)c1)c1ccc2c(c1)S(=O)(=O)N([C@H]1C[C@H](O)C1)C(=O)N2 [Example E125, Trans-2(3-hydroxycyclobutyl)-3-oxo-N-(3,4,5-trifluorophenyl)-3,4-dihydro-2H-benzo[e][1,2,4]thiadiazine-7-carboxamide 1,1-dioxide]	> 50
O=C(Nc1ccc(Cl)nc1)c1ccc2c(c1)S(=O)(=O)NCN2 [Example E92, N-(6-chloropyridin-3-yl)-3,4-dihydro-2H-benzo[e][1,2,4]thiadiazine-7-carboxamide 1,1-dioxide]	< 50
O=C(Nc1cc(F)c(F)c(F)c1)c1ccc2c(c1)S(=O)(=O)NC(CO)N2 (stereo not drawn) [Example E28, 3-(hydroxymethyl)-N-(3,4,5-trifluorophenyl)-3,4-dihydro-2H-benzo[e][1,2,4]thiadiazine-7-carboxamide 1,1-dioxide]	> 50

Same assay, conditions: Hepatitis B virus, compound at 1 µM, 96 hours, relative to non-treated reference, read-out: Anti HBV Activity (conc µM)

SMILES	inhibition at 1 µM [%]
CN1CNc2ccc(C(=O)Nc3cc(F)c(F)c(F)c3)cc2S1(=O)=O [Example E6, 2-methyl-N-(3,4,5-trifluorophenyl)-3,4-dihydro-2H-benzo[e][1,2,4]thiadiazine-7-carboxamide 1,1-dioxide]	< 50
O=C(Nc1cc(F)c(F)c(F)c1)c1ccc2c(c1)S(=O)(=O)N1CCCCC1CO2 (stereo not drawn) [Example E111, N-(3,4,5-trifluorophenyl)-1,2,3,4,12,12a-hexahydrobenzo[b]pyrido[1,2-e][1,4,5]oxathiazepine-8-carboxamide 6,6-dioxide]	< 50
O=C(Nc1cc(F)c(F)c(F)c1)c1ccc2c(c1)S(=O)(=O)NC(c1cnc[nH]1)N2 (stereo not drawn) [Example E51, 3-(1H-imidazol-5-yl)-N-(3,4,5-trifluorophenyl)-3,4-dihydro-2H-benzo[e][1,2,4]thiadiazine-7-carboxamide 1,1-dioxide]	< 50
O=C(Nc1cc(F)c(F)c(F)c1)c1ccc2c(c1)S(=O)(=O)NC1(CCOCC1)N2 [Example E13, N-(3,4,5-trifluorophenyl)-2',3',5',6'-tetrahydro-2H,4H-spiro[benzo[e] [1,2,4]thiadiazine-3,4'-pyran]-7-carboxamide1,1-dioxide]	> 50
O=C(Nc1cc(F)c(F)c(F)c1)c1cc2c(cc1Cl)NC1(CCC1)NS2(=O)=O [Example E34, 6-chloro-N-(3,4,5-trifluorophenyl)-2H,4H-spiro[benzo[e] [1,2,4]thiadiazine-3,1'-cyclobutane]-7-carboxamide 1,1-dioxide]	< 50
O=C1Nc2ccc(C(=O)Nc3ccc(F)c(F)c3)cc2S(=O)(=O)N1 [Example E74, N-(3,4-difluorophenyl)-3-oxo-3,4-dihydro-2H-benzo[e][1,2,4]thiadiazine-7-carboxamide 1,1-dioxide]	< 50
N#Cc1cc(NC(=O)c2ccc3c(c2)S(=O)(=O)NC=N3)ccc1F [Example E90, N-(3-cyano-4-fluorophenyl)-2H-benzo[e][1,2,4]thiadiazine-7-carboxamide 1,1-dioxide]	< 50
O=C(Nc1cc(F)c(F)c(F)c1)c1cc2c(cc1Br)NCNS2(=O)=O [Example E8, 6-bromo-N-(3,4,5-trifluorophenyl)-3,4-dihydro-2H-benzo[e][1,2,4]thiadiazine-7-carboxamide 1,1-dioxide]	> 50
O=C(Nc1cc(F)c(F)c(F)c1)c1ccc2c(c1)S(=O)(=O)NC(c1cccs1)N2 (stereo not drawn) [Example E43, 3-(thiophen-2-yl)-N-(3,4,5-trifluorophenyl)-3,4-dihydro-2H-benzo[e][1,2,4]thiadiazine-7-carboxamide 1,1-dioxide]	> 50
O=C(Nc1ccc(F)c(F)c1)c1ccc2c(c1)S(=O)(=O)NC(CO)N2 (stereo not drawn) [Example E119, N-(3,4-difluorophenyl)-3-(hydroxymethyl)-3,4-dihydro-2H-benzo[e][1,2,4]thiadiazine-7-carboxamide 1,1-dioxide]	> 50
O=C(Nc1cc(F)c(F)c(F)c1)c1ccc2c(c1)S(=O)(=O)N1CCCC[C@H]1CN2 [Example E103, (S)-N-(3,4,5-trifluorophenyl)-1,3,4,11,12,12a-hexahydro-2H-benzo[f]pyrido[1,2-b][1,2,5]thiadiazepine-8-carboxamide 6,6-dioxide]	< 50
CC1=Nc2ccc(C(=O)Nc3ccc(F)c(F)c3)cc2S(=O)(=O)N1 [Example E67, N-(3,4-difluorophenyl)-3-methyl-2H-benzo[e][1,2,4]thiadiazine-7-carboxamide 1,1-dioxide]	< 50
CC1(c2ccncc2)Nc2ccc(C(=O)Nc3cc(F)c(F)c(F)c3)cc2S(=O)(=O)N1 (stereo not drawn) [Example E39, 3-methyl-3-(pyridin-4-yl)-N-(3,4,5-trifluorophenyl)-3,4-dihydro-2H-benzo[e][1,2,4]thiadiazine-7-carboxamide 1,1-dioxide]	> 50
CC1(C)Nc2ccc(C(=O)Nc3ccc(F)c(F)c3)cc2S(=O)(=O)N1 [Example E120, N-(3,4-difluorophenyl)-3,3-dimethyl-3,4-dihydro-2H-benzo[e][1,2,4]thiadiazine-7-carboxamide 1,1-dioxide]	> 50

Source: patent EP3597653A1, “CYCLIC INHIBITORS OF HEPATITIS B VIRUS” (IRBM S.P.A., priority 2018, dated 2020)
